In patent US8952024B2, “Herbicidal pyrimidone derivatives” (E I du Pont de Nemours and Company, priority 2009, dated 2015):

How the values were obtained:
Format in all cases: in vivo
[1] = test system: nightshade (eastern black nightshade, Solanum ptycanthum); test: Test B pre-/postemergence plant response; details: Preemergence; for Nightshade plant response rating: 125 g ai/ha
In short: (§1)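 Visual injury, 0–100 scale (100 = complete control), rated against controls after 13 to 15 days in greenhouse. Pre-emergence: seeds in loam/sand soil, treated at planting. Post-emergence: 1- to 4-leaf plants (2 to 18 cm) in peat/vermiculite medium. Compounds formulated in non-phytotoxic solvent with surfactant.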

[2] = test system: galium (catchweed bedstraw, Galium aparine); test: Test B pre-/postemergence plant response; details: Preemergence; for Galium plant response rating: 125 g ai/ha
In short: as §1

[3] = test system: sunflower (common oilseed sunflower, Helianthus annuus); test: Test B pre-/postemergence plant response; details: Preemergence; for Sunflower plant response rating: 125 g ai/ha
In short: as §1

rice (Oryza sativa) = test: Test B flooded paddy test; details: for Plant response rating, Flood, Rice: 250 g ai/ha, flooded paddy test, visual rating on 0 to 100 scale (0 no effect, 100 complete control) after 13 to 15 days; for Plant response rating, Rice: Flood (flooded paddy test), 13 to 15 days
In short: (§2)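 Ratings are visual, 0–100 (100 = complete control), taken versus untreated controls 13 to 15 days after treatment in the greenhouse. Compound went straight into paddy water held 3 cm above soil, applied to 2-leaf-stage plants of four species.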

[4] = test system: umbrella sedge (Cyperus difformis); test: Test B flooded paddy test; details: for Plant response rating, Flood, Sedge, Umbrella: 250 g ai/ha, flooded paddy test, visual rating on 0 to 100 scale (0 no effect, 100 complete control) after 13 to 15 days; for Plant response rating, Sedge, Umbrella: Flood (flooded paddy test), 13 to 15 days
In short: as §2

[5] = test system: barnyardgrass (Echinochloa crus-galli); test: Test B flooded paddy test; details: for Plant response rating, Flood, Barnyardgrass: 250 g ai/ha, flooded paddy test, visual rating on 0 to 100 scale (0 no effect, 100 complete control) after 13 to 15 days; for Plant response rating, Barnyardgrass: Flood (flooded paddy test), 13 to 15 days
In short: as §2

[6] = test system: ducksalad (Heteranthera limosa); test: Test B flooded paddy test; details: for Plant response rating, Flood, Ducksalad: 250 g ai/ha, flooded paddy test, visual rating on 0 to 100 scale (0 no effect, 100 complete control) after 13 to 15 days; for Plant response rating, Ducksalad: Flood (flooded paddy test), 13 to 15 days
In short: as §2

[7] = test system: goosegrass (Eleusine indica); test: Test B pre-/postemergence plant response; details: Preemergence, 62 g ai/ha; scale 0 to 100, 0 no effect, 100 complete control
[8] = test system: giant foxtail (Setaria faberii); test: Test A pre-/postemergence plant response
In short: (§3)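 Pre: directed soil spray on seeded loam/sand blend. Post: same formulation (non-phytotoxic solvent + surfactant) on 2–10 cm plants, 1–2 leaf stage. Greenhouse ~10 d; visual injury score 0–100 vs untreated.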

[9] = test system: barnyardgrass (Echinochloa crus-galli); test: Test A pre-/postemergence plant response
In short: as §3

[10] = test system: pigweed (Amaranthus retroflexus); test: Test A pre-/postemergence plant response
In short: as §3

corn (Zea mays) = test: Test A pre-/postemergence plant response
In short: as §3

[11] = 31 g ai/ha, scale 0 to 100 (0 no effect, 100 complete control)
[12] = 62 g ai/ha, scale 0 to 100, 0 no effect, 100 complete control
[13] = 31 g ai/ha, scale of 0 to 100 where 0 is no effect and 100 is complete control
[14] = 62 g ai/ha, scale 0 to 100, 0 is no effect, 100 is complete control
[15] = 125 g ai/ha, scale 0 to 100, 0 is no effect, 100 is complete control
[16] = Postemergence, 125 g ai/ha, visual injury, 0 to 100 scale (0 no effect, 100 complete control), approx. ten days
[17] = Postemergence, 500 g ai/ha, 0 to 100 scale, 0 = no effect, 100 = complete control, approx. ten days
[18] = Preemergence, 125 g ai/ha, 0 to 100 scale, 0 = no effect, 100 = complete control
[19] = Preemergence, 500 g ai/ha, visual injury, 0 to 100 scale (0 no effect, 100 complete control), approx. ten days

2-(3,5-difluorophenyl)-5-[(2-hydroxy-4-oxobicyclo[3.2.1]oct-2-en-3-yl)carbonyl]-3-(2-methoxyethyl)-4(3H)-pyrimidinone [Compound 243]
45: Plant response rating, Sunflower [3, 11]
75: Plant response rating, Flood, Sedge, Umbrella [4] | Plant response rating, Flood, Ducksalad [6]
100: Plant response rating, Nightshade ([1]; 250 g ai/ha, 0 to 100 scale) | Plant response rating, Nightshade [1, 11] | Plant response rating, Nightshade [1, 12] | Nightshade plant response rating ([1]; 0 to 100 scale) | Plant response rating, Barnyardgrass [9, 17] | Plant response rating, Barnyardgrass [9, 19] | Pigweed plant response rating [10, 16] | Plant response rating, Pigweed [10, 17] | Plant response rating, Pigweed [10, 19]
98: Plant response rating, Sunflower ([3]; 250 g ai/ha, 0 to 100 scale) | Plant response rating, Goosegrass [7]
40: Plant response rating, Galium [2, 12] | Plant response rating, Foxtail, Giant [8, 18]
10: Corn plant response rating (corn (Zea mays); [16])
85: Plant response rating, Sunflower [3, 12]
95: Plant response rating, Galium ([2]; 250 g ai/ha, 0 to 100 scale) | Sunflower plant response rating ([3]; 0 to 100 scale)
50: Plant response rating, Flood, Barnyardgrass [5] | Plant response rating, Pigweed [10, 18]
90: Plant response rating, Foxtail, Giant [8, 17] | Plant response rating, Foxtail, Giant [8, 19]
80: Foxtail, Giant plant response rating [8, 16] | Barnyardgrass plant response rating [9, 16]
60: Galium plant response rating ([2]; 0 to 100 scale) | Plant response rating, Ducksalad [6, 15]
30: Plant response rating, Sedge, Umbrella [4, 14] | Plant response rating, Ducksalad [6, 14]
70: Plant response rating, Sedge, Umbrella [4, 15] | Plant response rating, Corn (corn (Zea mays); [17])
0: Plant response rating, Galium [2, 11] | Plant response rating, Flood, Rice (rice (Oryza sativa)) | Plant response rating, Rice (rice (Oryza sativa); [13]) | Plant response rating, Rice (rice (Oryza sativa); [14]) | Plant response rating, Rice (rice (Oryza sativa); [15]) | Plant response rating, Sedge, Umbrella [4, 13] | Plant response rating, Barnyardgrass [5, 13] | Plant response rating, Barnyardgrass [5, 14] | Plant response rating, Barnyardgrass [5, 15] | Plant response rating, Ducksalad [6, 13] | Plant response rating, Barnyardgrass [9, 18] | Plant response rating, Corn (corn (Zea mays); [18]) | Plant response rating, Corn (corn (Zea mays); [19])

5-[(1-ethyl-5-hydroxy-1H-pyrazol-4-yl)carbonyl]-2-phenyl-3-(phenylmethyl)-4(3H)-pyrimidinone [Compound 20]
0: Plant response rating, Galium [2, 11] | Plant response rating, Flood, Rice (rice (Oryza sativa)) | Plant response rating, Rice (rice (Oryza sativa); [13]) | Plant response rating, Rice (rice (Oryza sativa); [14]) | Plant response rating, Rice (rice (Oryza sativa); [15]) | Plant response rating, Flood, Barnyardgrass [5] | Plant response rating, Barnyardgrass [5, 13] | Plant response rating, Barnyardgrass [5, 14] | Plant response rating, Barnyardgrass [5, 15] | Plant response rating, Ducksalad [6, 13] | Plant response rating, Ducksalad [6, 14] | Plant response rating, Foxtail, Giant [8, 18] | Corn plant response rating (corn (Zea mays); [16]) | Plant response rating, Corn (corn (Zea mays); [18]) | Plant response rating, Corn (corn (Zea mays); [19])
50: Plant response rating, Nightshade [1, 11] | Plant response rating, Galium ([2]; 250 g ai/ha, 0 to 100 scale) | Plant response rating, Sunflower [3, 11] | Plant response rating, Sedge, Umbrella [4, 14] | Barnyardgrass plant response rating [9, 16]
80: Plant response rating, Pigweed [10, 18]
85: Plant response rating, Sunflower ([3]; 250 g ai/ha, 0 to 100 scale)
5: Plant response rating, Galium [2, 12]
98: Nightshade plant response rating ([1]; 0 to 100 scale)
70: Plant response rating, Sunflower [3, 12] | Sunflower plant response rating ([3]; 0 to 100 scale) | Plant response rating, Flood, Ducksalad [6] | Plant response rating, Ducksalad [6, 15] | Plant response rating, Goosegrass [7]
60: Plant response rating, Flood, Sedge, Umbrella [4] | Plant response rating, Sedge, Umbrella [4, 15] | Plant response rating, Foxtail, Giant [8, 17] | Plant response rating, Barnyardgrass [9, 19]
30: Galium plant response rating ([2]; 0 to 100 scale) | Foxtail, Giant plant response rating [8, 16] | Plant response rating, Barnyardgrass [9, 18]
100: Plant response rating, Nightshade ([1]; 250 g ai/ha, 0 to 100 scale) | Pigweed plant response rating [10, 16] | Plant response rating, Pigweed [10, 17] | Plant response rating, Pigweed [10, 19]
40: Plant response rating, Sedge, Umbrella [4, 13]
10: Plant response rating, Foxtail, Giant [8, 19] | Plant response rating, Corn (corn (Zea mays); [17])
90: Plant response rating, Barnyardgrass [9, 17]
